Laboratory results as given in patent US20260001911A1, “CYCLIC PEPTIDE COMPOUND CONTAINING PIPERAZIC ACID, METHOD OF PRODUCING SAME, AND USES OF SAME” (MolGenBio Co., Ltd., priority 2020, published 2026).
Read-outs that look alike come from different tables or passages of the source. Numbered stars: 1 amine (or outer) side, 2 acyl side, 3 side chain; on linkers, the order of the positions; unused ones are H or OH. Square brackets hold non-standard residues; d marks the D form. Peptide text beside a SMILES is read from it. NMeF = CN[CH](Cc1ccccc1)C(=O)O; X1 = O=C(C1CCCNN1[*:1])[*:2]; NMeV = CN[CH](C(=O)O)C(C)C; NMeS = CN[CH](CO)C(=O)O; NMeA = CN[CH](C)C(=O)O; βAla = NCCC(=O)O

Tests used:
[1] = test system: colorectal cancer cell HCT116; assay: cells
Procedure: (§1) 6 types of cancer cell lines of Lung adenocarcinoma cell A549, colorectal cancer cell HCT116, breast cancer cell MDA-MB-231, liver adenocarcinoma cell SK-HEP-1, stomach adenocarcinoma cell SNU638, and chronic myeloid leukemia cell K562,and a normal cell line of pulmonary fibroblast MRC-5 were purchased from Korean Cell Line Bank (Seoul, Korea).
(§2) With Lenziamide compound prepared as in Example 1 added, the cell lines were cultured for about 72 hours. Thereafter, the resulting cell cultures were stained with sulforhodamine (SRB) that […] and washed to remove non-binding dye, and the stained cells were suspended in 10 mM of Tris (pH 10.0). The absorbance was measured at 515 nm and the cell proliferation was measured. Using TableCurve 2D v5.01 software (Systant Software Inc., Richmond, CA, USA), half maximal inhibitory concentration (IC50) value was calculated by nonlinear regression analysis method. All reagents were purchased from Sigma-Aldrich. As a positive control, etoposide was used.

[2] = test system: HCT116-5-FU resistant cell line; assay: SRB cell growth inhibition, 5-fluorouracil resistant HCT116-5-FU
Procedure: as §2
In order to prepare HCT116-5-FU resistant cell line, 5-fluorouracil was treated to HCT116 cells 3 times a week, and only surviving cells were subcultured with treatment of increasing concentrations of 5-fluorouracil for 3 months. HCT116-5-FU resistant cell line was established by finally collecting and culturing only the surviving cells.

[3] = test system: Lung adenocarcinoma cell A549; assay: cells
Procedure: as §1, §2

[4] = test system: liver adenocarcinoma cell SK-HEP-1; assay: cells
Procedure: as §1, §2

[5] = test system: breast cancer cell MDA-MB-231; assay: cells
Procedure: as §1, §2

[6] = test system: stomach adenocarcinoma cell SNU638; assay: cells
Procedure: as §1, §2

[7] = test system: chronic myeloid leukemia cell K562; assay: cells
Procedure: as §1, §2

[8] = test system: pulmonary fibroblast MRC-5; assay: cells
Procedure: as §1, §2

[9] = test system: colorectal cancer cell line HCT116; assay: Cell cycle analysis by flow cytometry; assay type: cell-based, human
Procedure: In order to identify the action mechanism of lenziamide A showing an excellent cell proliferation inhibiting efficacy, cells of colorectal cancer cell line HCT116 were treated with lenziamide A at a concentration of 0 μM, 1.25 μM, 2.5 μM, or […]. The cell cycle control effect of lenziamide A was confirmed by using flow cytometry method, and the results are shown in FIGS. 2A and 2B.

[10] = test system: HCT116 cells; assay: Annexin V/propidium iodide dual-stain analysis; assay type: cell-based, human
Procedure: In order to confirm that sub G1 cell accumulation due to G2/M arrest effect of lenziamide A leads to cell apoptosis, HCT116 cells were treated with different concentrations of lenziamide A. Thereafter, cell death induction efficacy of lenziamide A was evaluated by using Annexin V/propidium iodide dual-stain analysis method which can identify cell deaths. The results of Annexin V/propidium iodide dual-stain analysis were shown in FIG. 3A, and stages of cells according to the concentration of lenziamide A were shown in FIG. 3B. The ratios (%) of live cells, early apoptosis, late apoptosis, necrosis, and total cell death were calculated.

[11] = test system: HCT116 colorectal cancer xenograft; assay: HCT116 xenograft animal model; assay type: in vivo; settings: 10, 30 mg/kg intravenous
Procedure: Cells of HCT116, a human-derived colorectal cancer cell line, were diluted to a concentration of 5×10^6 units/mL in RPMI (Roswell Park Memorial Institute) medium, and 0.2 mL of the diluted cells was injected subcutaneously to right flank of BALB/c mice (5-week old, male). When the size of the tumor reached about 100 mm^3, groups were randomly divided based on the size of the tumor.
Lenziamide A was administered by intravenous injection at a dose of 10 mg/body weight kg or 30 mg/body weight kg to the prepared xenograft animal models. A mixture mixed at a ratio of dimethyl sulfoxide: Cremophor: saline=0.5:0.5:9 was used as a negative control, and irinotecan was used as a positive control. Volume of the tumor (mm^3), body weight of the xenograft animal model (g), and final weight of the tumor (g) were measured from the first day of administration, and the results are shown in FIGS. 4A to 4C.

[12] = test system: metastatic colorectal cancer cell line (L-2); assay: Expression of metastasis related biomarkers; assay type: cell-based; settings: L-2 cells, 0 μM to 4 μM
Procedure: of non-metastatic cancer, thereby making it very difficult to treat it. A colorectal cancer cell line (C-1) was injected into appendix of laboratory mice and left for 6 weeks to artificially induce growth and metastasis of tumor, and colorectal cancer cells metastasized to the liver (L-2) were isolated and cultured. After administering 0 μM to 4 μM of lenziamide A to colorectal cancer cell line (C-1) and metastatic colorectal cancer cell line (L-2) obtained above, expression of biomarkers related to metastasis of cancer was identified by reverse transcription polymerase chain reaction (RT-PCR), and the results are shown in FIG. 6A.

[13] = test system: metastatic colorectal cancer cell line (L-2); assay: Metastatic colorectal cancer cell (L-2) injected animal model; assay type: in vivo, laboratory mice; settings: 5 mg/kg or 15 mg/kg
Procedure: As described in Example 2-7 (1), a metastatic colorectal cancer cell line (L-2) was re-injected into appendix of laboratory mice to form tumor, and lenziamide A was administered at a dose of 5 mg/body weight kg or 15 mg/body weight kg. A mixture mixed at a ratio of dimethyl sulfoxide: Cremophor: saline=0.5:0.5:9 was used as a negative control. 10 mg/body weight kg of irinotecan was administered as a positive control. Volumes of tumor (mm3) and body weights of the xenograft animal model (g) were measured from the first day of administration, and the results are shown in FIGS. 6B and 6C.

[14] = test system: HCT116-5-FU resistant cell line xenograft; assay: HCT116-5-FU resistant xenograft animal model; assay type: in vivo, BALB/c mice; settings: 10 mg/kg intravenous
Procedure: HCT116-5-FU resistant cell line prepared as described in Example 2-5 was diluted to a concentration of […] in RPMI medium, and 0.2 mL of the diluted cell line was injected subcutaneously to right flanks of BALB/c mice (5-week old, male). When the size of the tumor reached about 100 mm^3, groups were randomly divided based on the size of the tumor.
Lenziamide A (10 mg/body weight kg), 5-FU (30 mg/body weight kg), or a combination thereof (10 mg/body weight kg of lenziamide A+30 mg/body weight kg of 5-FU) was administered by intravenous injection to resistant cancer cell line injected xenograft animal models. A mixture mixed at a ratio of dimethyl sulfoxide: Cremophor: saline=0.5:0.5:9 was used as a negative control. Volumes of tumor (mm^3) and body weights of the xenograft animal models (g) were measured from the first day of administration, and the results are shown in FIGS. 5A and 5B.

[15] = Homo sapiens, HCT-116, read-out: IC50 HCT116
[16] = Homo sapiens, read-out: IC50 HCT116-5-FU

SMILES	IC50 [1, 15]	Fold change (HCT116-5-FU/HCT116) [2]	IC50 [2, 16]	IC50 ([3]; 72 h)	IC50 ([4]; 72 h)	IC50 ([5]; 72 h)	IC50 ([6]; 72 h)	IC50 ([7]; 72 h)	IC50 ([8]; 72 h)	IC50 ([1]; 72 h)	further results
O=c1[nH]cc(F)c(=O)[nH]1 [5-fluorouracil]	4220 nM	8.70	36700 nM								
COc1cc([C@@H]2c3cc4c(cc3[C@@H](O[C@@H]3O[C@@H]5CO[C@@H](C)O[C@H]5[C@H](O)[C@H]3O)[C@H]3COC(=O)[C@H]23)OCO4)cc(OC)c1O [Etoposide, reference compound]	760 nM	2.53	1920 nM								IC50 ([3]; Homo sapiens, A549, 72 h, read-out: IC50 A549): 590 nM; IC50 ([4]; Homo sapiens, SK-HEP1, 72 h, read-out: IC50 SK-HEP-1): 450 nM; IC50 ([5]; Homo sapiens, MDA-MB-231, 72 h, read-out: IC50 MDA-MB-231): 3360 nM; IC50 ([6]; Homo sapiens, SNU-638, 72 h, read-out: IC50 SNU638): 480 nM; IC50 ([7]; Homo sapiens, K562, 72 h, read-out: IC50 K562): 760 nM; IC50 ([8]; Homo sapiens, MRC5, 72 h, read-out: IC50 MRC-5): 11600 nM; IC50 ([1]; Homo sapiens, HCT-116, 72 h, read-out: IC50 HCT116): 1860 nM
CCc1c2c(nc3ccc(OC(=O)N4CCC(N5CCCCC5)CC4)cc13)-c1cc3c(c(=O)n1C2)COC(=O)[C@]3(O)CC [Irinotecan]	1520 nM	3.72	5650 nM								
CCC(C)C1NC(=O)C(Cc2ccccc2)N(C)C(=O)C2CCCNN2C(=O)C(CO)N(C)C(=O)C(CC(C)C)NC(=O)C(Cc2ccccc2)N(C)C(=O)C(C)NC(=O)C(C(C)C)N(C)C(=O)CCNC(=O)C(C)N(C)C1=O (stereo not shown) [Lenziamide A] (cyclo([X1][NMeF]I[NMeA][βAla][NMeV]A[NMeF]L[NMeS]); configuration not given here)				800 nM	390 nM	620 nM	440 nM	770 nM	> 20000 nM	370 nM	sub G1 cell accumulation (cell death) ([9]; after G2/M arrest, high concentration): followed by sub G1 cell accumulation; G2/M cell cycle arrest ([9]; until 24 hours after treatment, 0-5 μM): G2/M cell cycle arrest was increased; IC50 [1]: 360 nM; growth of HCT116-5-FU resistant cell line [2]: effectively inhibited growth of HCT116-5-FU resistant cell line; IC50 ([2]; 72 h): 420 nM; Fold change (HCT116-5-FU/HCT116) ([2]; IC50 of HCT116-5-FU with respect to IC50 of HCT116): 1.16; early apoptosis cell population ([10]; 5 μM): about 20.37%; late apoptosis cell population ([10]; 5 μM): 51.40%; apoptosis ([10]; different concentrations of lenziamide A): apoptosis increased dependent on the concentration; tumor growth (volume, final weight) [11]: concentration-dependent tumor growth inhibitory effect; body weight (toxicity) ([11]; during administration period): no significant weight decrease; expression of E-cadherin [12]: increased; expression of N-Cadherin and vimentin [12]: decreased; growth of tumor in the appendix [13]: also inhibited; metastasis of the tumor to other organs [13]: effectively inhibited; body weight [14]: without significant weight loss; growth of resistant tumor [14]: effectively inhibited growth of resistant tumor
CCC(C)C1NC(=O)C(Cc2c[nH]c3ccccc23)N(C)C(=O)C2CCCNN2C(=O)C(CO)N(C)C(=O)C(CC(C)C)NC(C)C(Cc2ccccc2)N(C)C(=O)C(C)NC(=O)C(C(C)C)N(C)C(=O)CCNC(=O)C(C)N(C)C1=O (stereo not shown) [Lenziamide B]				430 nM	220 nM	230 nM	250 nM	360 nM	> 20000 nM	200 nM	
CC(C)CC1NC(C)C(Cc2ccccc2)N(C)C(=O)C(C)NC(=O)C(C(C)C)N(C)C(=O)CCNC(=O)C(C)N(C)C(=O)C(C(C)C)NC(=O)C(Cc2ccccc2)N(C)C(=O)C2CCCNN2C(=O)C(CO)N(C)C1=O (stereo not shown) [Lenziamide C]				760 nM	530 nM	960 nM	430 nM	650 nM	> 20000 nM	520 nM	
CC(C)CC1NC(C)C(Cc2ccccc2)N(C)C(=O)C(C)NC(=O)C(C(C)C)N(C)C(=O)CCNC(=O)C(C)NC(=O)C(C(C)C)NC(=O)C(Cc2ccccc2)N(C)C(=O)C2CCCNN2C(=O)C(CO)N(C)C1=O (stereo not shown) [Lenziamide E]				1780 nM	960 nM	1590 nM	1320 nM	1210 nM	> 20000 nM	1010 nM	
